# Assay results from patent US11779544B1, “Antithrombotic nanoparticles and methods for treating necrotizing enterocolitis” (University of South Florida, priority 2018, dated 2023).
# Where a name gives a salt, the structure may show the parent alone.
# How the values were obtained:
# [1] = tested on: P10 platelets; experiment: Duration of bivalirudin inhibition of thrombin-mediated dense granule discharge after point-exposure and wash; assay type: cell-based, mice; settings: platelets treated with bivalirudin in vitro and washed; thrombin 25 ng/mL
# Description: FIG. 13. Line diagrams (means±SEM) show mepacrine fluorescence signal released over time from control (blue) and bivalirudin-treated and washed (orange) P10 platelets into the supernatant, following treatment with thrombin (25 ng/mL). Data represent 3 separate experiments; each experiment included platelets pooled from 3 pups; Kruskal Wallis H test with Dunn's post-test for group comparisons; * P<0.05 vs. control.
# In vivo assessment was performed for thrombin-mediated platelet activation during neonatal intestinal injury. […] In the next in vivo study, wild-type neonatal mice 3 h into intestinal injury were transfused with platelets expressing enhanced yellow fluorescence protein (YFP; platelets harvested from progeny of PF4-cre mice (C57BL/6-Tg(Cxcl4-cre)Q3Rsko/J)×R26-stop-YFP mutant mice (B6.129X1-Gt(ROSA)26Sortm1(EYFP)Cos/J). In some mice, YFP^+ platelets were pre-treated with bivalirudin prior to transfusion, and CD31 expression was then measured for both the endogenous and the bivalirudin-treated transfused YFP^+ platelets in blood samples drawn 3 h after the transfusion. Bivalirudin-pretreatment curtailed CD31 expression on YFP^+ platelets (FIG. 3c), providing further evidence for a role of thrombin as the primary platelet activator in NEC-like neonatal intestinal injury. […]
# [2] = tested on: P10 platelets; experiment: Mixing experiment: dense granule discharge (mepacrine release) of control platelets resuspended in intestinal injury plasma; assay type: cell-based, mice; settings: mepacrine fluorescence released into supernatant; intestinal injury plasma at 3 h with added inhibitor
# Description: FIGS. 12A and 12B. (A) Scatter bar diagrams (means±SEM) show mepacrine fluorescence signal released from control P10 platelets into the supernatant, following resuspension in plasma from pups in (1) control group; (2) intestinal injury at 3 h; and (3) intestinal injury at 3 h with added bivalirudin, a synthetic peptide inhibitor of thrombin. N=6 mice/group; (B) mepacrine fluorescence released from control platelets following resuspension in plasma from (1) control group (N=8 mice); (2) intestinal injury at 3 h (N=12 mice); and (3) intestinal injury at 3 h with added D-phenylalanyl-prolyl-arginyl chloromethyl ketone (PPACK), a different thrombin inhibitor (N=11 mice). Kruskal Wallis H test with Dunn's post-test for group comparisons; * P<0.05, ** P<0.01 vs. control; #P<0.05, ###P<0.001 vs. intestinal injury plasma.
# (§1) Neonatal platelets can be hyporesponsive under specific conditions, [Mull M M, Hathaway W E. Altered platelet function in newborns. Pediatr Res. 1970; 4(3):229-237] and therefore, the ability of neonatal murine platelets to respond to thrombin was checked. Treatment of mepacrine-stained P10 platelets with recombinant thrombin ([…]) caused dense granule discharge within 15 min (FIG. 11). […]
# (§2) Dense granules were stained with mepacrine (Quinacrine dihydrochloride; Sigma). […] Fluorescence was measured at 436/525 nm.
# [3] = tested on: platelets from control pups; experiment: CD31 expression on control platelets resuspended in intestinal injury plasma; assay type: cell-based, mice; settings: bivalirudin 200 ng/mL; platelets resuspended ×45 min
# Description: (§3) FIG. 3b. Plasma from mouse pups with intestinal injury activates platelets via thrombin. […] N=3 mice/group; 2 runs; Kruskal Wallis H test with Dunn's post-test for group comparisons, ** P<0.01 vs. control, #P<0.05 vs. intestinal injury; FIG. 3c Thrombin activates platelets during murine neonatal intestinal injury. YFP^+ platelets were transfused into WT C57BL/6 pups with intestinal injury, and blood samples were drawn after 3 h. […] Treatment of YFP^+ platelets with bivalirudin prior to transfusion blocked activation-related increase in CD31 expression (lower right). […] N=4 mice/group; Kruskal Wallis H test with Dunn's post-test for group comparisons, * P<0.05 vs. untreated YFP^+ platelets, #P<0.05 vs. endogenous platelets in the bivalirudin-treated YFP^+ platelet transfusion group. […]
# (§4) Platelet activation markers were measured by flow cytometry, using the following fluorescence-labeled antibodies: JON/A (Emfret); anti-CD62P, anti-CD41/GPIIb, CD61/integrin αvβ3, CD31/PECAM-1 (BioLegend, San Diego, Calif.). Platelets were evaluated by size-gate threshold adjustment with microbeads of known diameter (100 nm to 1.3 μm; Spherotech, Lake Forest, Ill.) in forward and side-scatter. […] Platelet aggregation was measured by impedance method and ATP release by luminometry using a 2-channel Chrono-Log lumi-aggregometer (model 700, Chrono-Log, Havertown, Pa., USA) per established methods. […]
# [4] = tested on: YFP+ platelets; experiment: Transfusion of bivalirudin-pretreated YFP+ platelets into pups with intestinal injury, CD31 expression; assay type: in vivo, mice; settings: YFP+ platelets pre-treated with bivalirudin prior to transfusion, blood drawn 3 h after transfusion
# Description: as §3, §4
# [5] = tested on: P10 platelets; experiment: Recombinant thrombin treatment of mepacrine-stained platelets, dense granule discharge; assay type: cell-based, mice; settings: recombinant thrombin (25 μg/mL)
# Description: FIGS. 11A and 11B. Scatter bar diagrams (means±SEM) show (A) mepacrine fluorescence signal in platelets isolated from control P10 mice at serial time-points after treatment with recombinant thrombin (25 ng/mL). Fluorescence signal normalized and depicted as percent of control. Data represent 3 separate experiments; each experiment included platelets pooled from 3 pups; (B) mepacrine fluorescence signal released into the supernatant after thrombin stimulation. Kruskal Wallis H test with Dunn's post-test for group comparisons; ** P<0.01,*** P<0.001 vs. control.
# as §1, §2
# [6] = cited from earlier work
# [7] = in vivo; cited from earlier work
# [8] = tested on: plasma thrombin activity; experiment: Plasma thrombin activity in pups pre-treated with PCI-27483 before intestinal injury; assay type: in vivo, mice; settings: pre-treatment with PCI-27483
# Description: FIGS. 5A-5F. Resident intestinal macrophages release tissue factor to activate thrombin during neonatal intestinal injury. FIG. 5a. Scatterplots (means±SEM) show tissue factor (TF) concentrations in plasma and intestinal tissue at serial time points during neonatal intestinal injury, measured by ELISA. N=6 mice/group; Kruskal Wallis H test with Dunn's post-test for group comparisons, * P<0.05, ** P<0.01 vs. control; FIG. 5b. Plasma thrombin activity in mouse pups with intestinal injury vs. mouse pups first treated with PCI-27483, which inhibits the tissue factor-factor VII extrinsic pathway tenase complex. N=4 mice/group; Kruskal Wallis H test with Dunn's post-test for group comparisons, ***P<0.001 vs. control, ##P<0.01 vs. control treated with PCI-27483; FIG. 5c. Representative fluorescence photomicrographs show immunoreactivity for TF (green) in F4/80^+ (red) resident macrophages in control ileum and colon. […] FIG. 5d Scatter plots on right summarize the fluorescence intensity for TF in control intestinal epithelial cells (IECs), control macrophages, injury IECs, and injury macrophages (top) and in control colonic epithelial cells (CECs), control macrophages, injury CECs, and injury macrophages. […]
# To investigate the mechanisms for thrombin activation, tissue factor (TF) concentrations were evaluated during NEC-like intestinal injury. […]
compound,measurement,setting,value
bivalirudin: synthetic peptide of 20 amino acids (SEQ ID NO: 1); specific and reversible direct thrombin inhibitor,time bivalirudin-treated platelets remained refractory to thrombin,[1],≥ 120 min
same,platelet dense granule discharge caused by plasma from mice with intestinal injury,[2],blocked
same,effects of intestinal injury plasma on platelet CD31 expression,[3],blocked
same,CD31 expression on transfused YFP+ platelets,[4],blocked
same,CD31 expression on transfused YFP+ platelets,[4]; listed as Bivalirudin,curtailed
"recombinant thrombin: Recombinant mouse thrombin (Molecular Innovations), used as platelet activator",time to dense granule discharge,[5],≤ 15 min
"N=C(N)NCCCC(NC(=O)C1CCCN1C(=O)[C@H](N)Cc1ccccc1)C(=O)CCl (stereo partly drawn) [PPACK, D-phenylalanyl-N-[(1S)-4-[(aminoiminomethyl)amino]-1-(2-chloroacetyl)butyl]-L-prolinamide, trifluoroacetate salt]",LD50,[6]; in vivo,greater than 50 mg/kg
same,long-term toxicity,[6]; mice,no long-term toxicity
same,distribution half-life,[7],7 min
same,elimination half-life,[7],2.9 min
N=C(N)c1ccc2nc(-c3cc(CC(=O)N[C@@H](CC(=O)O)C(=O)O)cc(-c4cc(S(N)(=O)=O)ccc4O)c3O)[nH]c2c1 [PCI-27483],rise in plasma thrombin activity during intestinal injury,[8],blocked the rise
